# Experimental data as given in US20250161273A1, “PHARMACEUTICAL COMPOSITION COMPRISING DIPHENYLDIAZOLE DERIVATIVES AND METHODS OF USE” (MODAG GMBH, priority 2022, published 2025).
# Read-outs that look alike come from different tables or passages of the source.
# How the values were obtained:
# [1] = animal studies, cited from earlier work
# [2] = phase 1 first-in-human trial, multiple ascending dose (MAD) PK; assay type: in vivo; conditions: for reduction of AUC compared to Day 1 / reduction of Cmax compared to Day 1: Day 7, fasted; for fold increase in AUC / fold increase in Cmax: MAD Day 1; for AUC: read-out: AUC(0-tau) (geometric mean); for Cmax: read-out: Cmax (geometric mean)
# Protocol: Anle138b was studied in a single-centre, double-blind, randomised, placebo-controlled single ascending dose (SAD) and multiple ascending dose (MAD) study in healthy subjects. Eligible participants were randomly assigned (1:1 for sentinel subjects and 1:5 for main group) to placebo or anle138b (dose ranging from 50 mg to 300 mg per day), respectively. In addition, the effect of food on the pharmacokinetics (PK) of anle138b in healthy subjects was examined at doses of 150 mg per day (FES, food effect study). Participants were randomized to treatment sequence (fed→fasted) or (fasted→fed). Treatment for the SAD, MAD and FES arms of the study was administered orally in hard gelatin capsules containing either 10 mg or 30 mg of anle138b with excipient (i.e., lauroyl polyoxyl-32 glycerides) or excipient only. The primary endpoints were safety and tolerability, the secondary endpoint was pharmacokinetics. Data from all randomized individuals were evaluated. [Clinicaltrials.gov-identifier: NCT04208152. EudraCT-number: 2019-004218-33]
# Study design: A single-centre, double-blind, randomised, placebo-controlled single ascending dose (SAD) and multiple ascending dose (MAD) study of anle138b in doses of up to 300 mg per day in healthy subjects. The effect of food (FES) on the PK of anle138b in healthy subjects was examined using doses of 150 mg. Participants were recruited from Quotient Sciences (the “CRO”, Nottingham, UK) volunteer database. Approvals from the ethical review board and from the Medicines and Healthcare products Regulatory Agency (UK) were obtained. This study was conducted in accordance with the protocol and with the following legislation: The updated version of the international Council for Harmonisation Good Clinical Practice (GCP) including the integrated Addendum E6, the Medicines for Human Use (Clinical Trials) Regulations including amendments No. 1928, 2984 and 941. In addition, the study was performed according to the ethical principles outlined in the World Medical Association Declaration of Helsinki and its amendments. The study data was monitored. An independent study monitor was appointed to verify that the study was conducted in accordance with current GCP, regulatory requirements, the protocol and that the data were authentic, accurate and complete.
# In SAD, subjects received a single dose of anle138b or placebo after fasting from all food and drink (except water) for a minimum of 8 h prior to dosing. The dosing in the four SAD-cohorts were 50 mg, 100 mg, 200 mg and 300 mg of free anle138b equivalent, QD, cohorts A, B, C and D respectively. In the MAD part, participants received anle138b or placebo once daily (QD) for 7 days after fasting from all food and drink (except water) for a minimum of 8 h prior to dosing. The dosing in the three MAD-cohorts was 100 mg, 200 mg and 300 mg of free anle138b equivalent, cohorts AM, BM and CM, respectively. Post dosing mouth and hand checks were conducted to ensure the capsules were swallowed. In-study decisions were made by the safety advisory committee (SAC) comprising the principal investigator, the sponsor's medical monitor and a PK expert. For dose escalation to proceed, data needed to be available from a minimum of 6 subjects per cohort with completed per protocol safety and PK assessments up to 48 h after dosing to ensure at least 4 subjects had received active IMP. The decision to proceed to the next higher dose level was based on safety, tolerability and available PK data to 48 h post-administration. The following data were analyzed: Adverse events, vital signs, safety laboratory, ECG, physical examinations, plasma concentrations of anle138b with interim PK parameter estimations (Tmax, Cmax, AUC0-24, AUC0-tau, AUC0-last and T½, where applicable). Data were provided to the SAC in accordance with CRO standard operating procedure (SOP) on interim dose decision-making and dose escalation. […]
# [3] = test system: monomer; conditions: cited from earlier work
# [4] = 28-day toxicity study in rats; assay type: in vivo
# Excerpt: Safe starting dose & exposure limit justification: This trial followed the recommendations of the EMA (European Medicines Agency) (EMEA/CHMP/SWP/28367/07 Rev. 1; 20 Jul. 2017) and the FDA (Food and Drug Administration) (Guidance for Industry: Estimating the Maximum Safe Starting Dose in Initial Clinical Trials for Therapeutics in Adult Healthy Volunteers. U.S. Department of Health and Human Services Food and Drug Administration Center for Drug Evaluation and Research (CDER) July 2005) for dose finding in a first-in-human study. The safe starting dose was set based on toxicity studies in animals. In a 28-day toxicity study in rats, the no-observed-adverse-effect-level (NOAEL) was determined to be 50 mg/kg/day (human equivalent dose of 8.1 mg/kg). The dose range of the current trial was designed to start at 50 mg. Escalation between doses was planned to be flexible depending on emerging results but not to exceed an increment of 2-fold.
# [5] = 1.5-fold increase in dose from 200 mg to 300 mg
# [6] = 2-fold increase in dose from 100 mg to 200 mg
# [7] = human, plasma, oral, 100 mg, healthy volunteers, fasted, 100 mg QD, Day 1
# [8] = human, plasma, oral, 100 mg, healthy volunteers, fasted, 100 mg QD, Day 7
# [9] = human, plasma, oral, 200 mg, healthy volunteers, fasted, 200 mg QD, Day 1
# [10] = human, plasma, oral, 200 mg, healthy volunteers, fasted, 200 mg QD, Day 7
# [11] = human, plasma, oral, 300 mg, healthy volunteers, fasted, 300 mg QD, Day 1
# [12] = human, plasma, oral, 300 mg, healthy volunteers, fasted, 300 mg QD, Day 7
structure (smiles),measurement,setting,value
"Brc1cccc(-c2cc(-c3ccc4c(c3)OCO4)n[nH]2)c1 [anle138b, 3-(1,3-benzodioxol-5-yl)-5-(3-bromophenyl)-1H-pyrazole]",oral bioavailability (in words),[1],high oral bioavailability
same,levels in the brain relative to plasma,[1]; oral,5 fold
same,reduction of AUC compared to Day 1,[2]; MAD 100 mg group,about 53%
same,reduction of Cmax compared to Day 1,[2]; MAD 100 mg group,about 53%
same,reduction of AUC compared to Day 1,[2]; MAD 200 mg group,about 70%
same,reduction of Cmax compared to Day 1,[2]; MAD 200 mg group,about 70%
same,reduction of AUC compared to Day 1,[2]; MAD 300 mg group,71%
same,reduction of Cmax compared to Day 1,[2]; MAD 300 mg group,66%
same,fold increase in AUC,[2]; [5],2.4 fold
same,fold increase in Cmax,[2]; [5],2.0 fold
same,fold increase in AUC,[2]; [6],3.5 fold
same,fold increase in Cmax,[2]; [6],3.3 fold
same,accumulation ratios per cohort,"[2]; MAD, Day 7 vs Day 1",below 0.54
same,day by which steady state exposure appeared to be reached,"[2]; MAD, based on trough levels",≤ 5 days
same,Tmax,"[2]; human, plasma, oral, 100 mg, healthy volunteers, fasted, 100 mg QD (Cohort AM), Day 1, read-out: Tmax (median)",1 h
same,Tmax,"[2]; human, plasma, oral, 100 mg, healthy volunteers, fasted, 100 mg QD (Cohort AM), Day 1, read-out: Tmax (range)",1 to 1.5 h
same,Tmax,"[2]; human, plasma, oral, 100 mg, healthy volunteers, fasted, 100 mg QD (Cohort AM), Day 7, read-out: Tmax (median)",1.25 h
same,Tmax,"[2]; human, plasma, oral, 100 mg, healthy volunteers, fasted, 100 mg QD (Cohort AM), Day 7, read-out: Tmax (range)",1 to 1.5 h
same,AUC,[2]; [7],~261 ng·h/mL
same,Cmax,[2]; [7],~135 ng/mL
same,AUC,[2]; [8],~141 ng·h/mL
same,Cmax,[2]; [8],~70.9 ng/mL
same,half-life,"[2]; human, plasma, oral, 100 mg, healthy volunteers, fasted, 100 mg QD, Day 7, read-out: T1/2 (geometric mean) (converted)",~4.23 h
same,Tmax,"[2]; human, plasma, oral, 200 mg, healthy volunteers, fasted, 200 mg QD (Cohort BM), Day 1, read-out: Tmax (median)",1.5 h
same,Tmax,"[2]; human, plasma, oral, 200 mg, healthy volunteers, fasted, 200 mg QD (Cohort BM), Day 1, read-out: Tmax (range)",1 to 2.02 h
same,Tmax,"[2]; human, plasma, oral, 200 mg, healthy volunteers, fasted, 200 mg QD (Cohort BM), Day 7, read-out: Tmax (median)",1 h
same,Tmax,"[2]; human, plasma, oral, 200 mg, healthy volunteers, fasted, 200 mg QD (Cohort BM), Day 7, read-out: Tmax (range)",1 to 1.5 h
same,AUC,[2]; [9],~905 ng·h/mL
same,Cmax,[2]; [9],~447 ng/mL
same,AUC,[2]; [10],~308 ng·h/mL
same,Cmax,[2]; [10],~128 ng/mL
same,half-life at 7 days,"[2]; human, plasma, oral, 200 mg, healthy volunteers, fasted, 200 mg QD, Day 7, read-out: T1/2 (geometric mean) (converted)",~10 h
same,Tmax,"[2]; human, plasma, oral, 300 mg, healthy volunteers, fasted, 300 mg QD (Cohort CM), Day 1, read-out: Tmax (median)",1.5 h
same,Tmax,"[2]; human, plasma, oral, 300 mg, healthy volunteers, fasted, 300 mg QD (Cohort CM), Day 1, read-out: Tmax (range)",1.5 to 2 h
same,Tmax,"[2]; human, plasma, oral, 300 mg, healthy volunteers, fasted, 300 mg QD (Cohort CM), Day 7, read-out: Tmax (median)",1.5 h
same,Tmax,"[2]; human, plasma, oral, 300 mg, healthy volunteers, fasted, 300 mg QD (Cohort CM), Day 7, read-out: Tmax (range)",1 to 1.5 h
same,AUC,[2]; [11],~2210 ng·h/mL
same,Cmax,[2]; [11],~910 ng/mL
same,AUC,[2]; [12],~633 ng·h/mL
same,Cmax,[2]; [12],~307 ng/mL
same,half-life,"[2]; human, plasma, oral, 300 mg, healthy volunteers, fasted, 300 mg QD, Day 7, read-out: T1/2 (geometric mean) (converted)",~6.07 h
same,Tmax,"[2]; human, plasma, oral, healthy volunteers, 100-300 mg QD, post-administration, read-out: median Tmax, all MAD cohorts",1 to 1.5 h
same,binding to the monomer (in words),[3],does not bind to the monomer
same,no-observed-adverse-effect-level (NOAEL),[4]; 28-day toxicity study in rats,50 mg/kg/day
same,NOAEL at 28 days,"[4]; rat, in vivo",8.1 mg/kg
